These are literature values, as cited in paper PMC6851657 (Clinical Pharmacology and Therapeutics, 2019).

Where two headings read alike, the source gives them in different places. Marks after values point to notes of the source that are not given here.

The conditions of data set [1]: observed, ref Novartis data on file, cited from earlier work; for AUCinf / Cmax / t1/2: GM (CV%; range).
For data set [2] the following is noted: cited from earlier work; for AUC decrease: coadministration of itraconazole.
The conditions of data set [3]: cited from earlier work.
The next data set addresses CYP3A4 (Homo sapiens, UniProt P08684). The note with it: in vitro phenotyping, normalized to 100%; cited from earlier work.
The target in another data set is CYP2C9 (Homo sapiens, UniProt P11712). The note with it: cited from earlier work.
Chain of CYP2C9 (P11712 whole entry): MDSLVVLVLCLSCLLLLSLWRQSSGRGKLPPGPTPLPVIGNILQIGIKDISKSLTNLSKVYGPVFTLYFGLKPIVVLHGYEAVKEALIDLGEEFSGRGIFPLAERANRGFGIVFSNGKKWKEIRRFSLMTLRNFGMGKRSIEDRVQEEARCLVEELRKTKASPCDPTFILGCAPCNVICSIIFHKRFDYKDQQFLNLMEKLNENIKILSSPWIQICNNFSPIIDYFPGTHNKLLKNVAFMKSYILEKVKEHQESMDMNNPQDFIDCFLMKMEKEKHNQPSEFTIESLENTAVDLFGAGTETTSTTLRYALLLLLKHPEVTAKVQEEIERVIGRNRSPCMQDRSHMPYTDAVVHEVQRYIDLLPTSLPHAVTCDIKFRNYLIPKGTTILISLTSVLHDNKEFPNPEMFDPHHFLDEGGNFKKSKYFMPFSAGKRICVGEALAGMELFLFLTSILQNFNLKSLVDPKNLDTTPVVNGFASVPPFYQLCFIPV
The mark [4] stands for this setting: coadministration of rifampin, CYP2C9*1/*1.
Setting [5] is: coadministration with fluconazole, CYP2C9*1/*1.

Chain of CYP3A4 (P08684 whole entry): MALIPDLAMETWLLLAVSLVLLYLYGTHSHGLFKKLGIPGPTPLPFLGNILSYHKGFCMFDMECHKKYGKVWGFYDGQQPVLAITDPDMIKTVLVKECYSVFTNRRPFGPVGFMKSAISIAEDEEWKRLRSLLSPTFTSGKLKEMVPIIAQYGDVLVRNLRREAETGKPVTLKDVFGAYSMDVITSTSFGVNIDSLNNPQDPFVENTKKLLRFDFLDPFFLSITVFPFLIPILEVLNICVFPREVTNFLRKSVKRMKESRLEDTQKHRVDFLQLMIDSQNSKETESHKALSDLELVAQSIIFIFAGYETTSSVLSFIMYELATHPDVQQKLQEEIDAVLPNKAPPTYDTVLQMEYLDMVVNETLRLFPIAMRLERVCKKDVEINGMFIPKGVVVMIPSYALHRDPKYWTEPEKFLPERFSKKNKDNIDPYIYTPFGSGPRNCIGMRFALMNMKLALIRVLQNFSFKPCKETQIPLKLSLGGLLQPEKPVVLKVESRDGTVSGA

As for `CCc1cc(/C(C)=N/OCc2ccc(C3CCCCC3)c(C(F)(F)F)c2)ccc1CN1CC(C(=O)O)C1` [siponimod], in data set [1] (0.25 mg i.v. single dose), the AUCinf was 80.1 (25.6; 47.7–125) ng·hour/mL, the Cmax is listed as 3.22 (19; 1.88–3.81) ng/mL and the t1/2 is given as 27.4 (22.5; 20.1–47.7) h. Besides, the Tmax in data set [1] (0.25 mg i.v. single dose, median (range)) is listed as 2.92 (2.92–2.92) h. Moreover, in data set [1] (0.25 mg p.o. single dose), the AUCinf is recorded as 67.4 (26; 39.8–105) ng·hour/mL, the Cmax is recorded as 1.71 (24; 0.920–2.30) ng/mL and the t1/2 is listed as 26.7 (22; 17.2–43.8) h. For the same compound, the AUC decrease in data set [2] (CYP2C9*1/*2) is 9–10%. Moreover, the AUC decrease in data set [2] (CYP2C9*1/*3) is given as 24%. In addition, in data set [2] (setting [4]), the AUC reduction was 57% and the Cmax reduction is 45%. Also, in data set [2] (setting [5]), the AUC increase entry is on record as “increased approximately two fold” and the Cmax increase is recorded as ~ 10%. Further, the “Fraction available from dosage form” value in data set [3] (based on amount of siponimod excreted to feces) is on record as 0.91 ^c. Further, in data set [3] (estimated based on PopPK model, ref Novartis data on file), the Absorption rate constant is 0.687 ^d 1/hour. In addition, at CYP3A4, the “contribution of CYP3A4 to metabolism” value is recorded as 18.5%. At CYP2C9 (in vitro phenotyping data), the “fraction metabolized via CYP2C9 (fm,CYP2C9)” value was 0.79. Moreover, the “contribution of CYP2C9 to metabolism” value at CYP2C9 (in vitro phenotyping, normalized to 100%) is recorded as 79.3%.
